This note sets out measurements from ChEMBL document CHEMBL5385844, “Discovery of novel imidazole chemotypes as isoform-selective JNK3 inhibitors for the treatment of Alzheimer's disease” (Eur J Med Chem, 2023).

Series [1] addresses Mitogen-activated protein kinase 8 (Homo sapiens, UniProt P45983). The experiment in a line: Inhibition of human JNK1alpha1 assessed as incorporation of 33P-ATP.
For series [2], the system named is Mus musculus. The experiment in a line: Anti-alzheimer activity against homozygous 3 x Tg mouse model assessed as spontaneous alteration at 30 mg/kg, po administered daily for 2 months and measured after 57 days of treatment by Y-maze test (reference value: 46.81 +/- 2.76%). The series is classed as functional. The settings on record: 1460 h.
The target in series [3] is Mitogen-activated protein kinase 10 (Rattus norvegicus) (UniProt P49187). The experiment in a line: Inhibition of JNK3 in Amyloid beta (1 to 42)-induced c-Jun phosphorylation in primary rat cortex neuron assessed as decrease in c-Jun phosphorylation incubated for 24 hrs by Western blot analysis. Conditions: Primary cortical neuron, dose 10-20 µM. It is filed as cell-based.

Series [4] deals with T1, Dual specificity mitogen-activated protein kinase kinase 4 (Homo sapiens, UniProt P45985).
T1 sequence (P45985 whole entry): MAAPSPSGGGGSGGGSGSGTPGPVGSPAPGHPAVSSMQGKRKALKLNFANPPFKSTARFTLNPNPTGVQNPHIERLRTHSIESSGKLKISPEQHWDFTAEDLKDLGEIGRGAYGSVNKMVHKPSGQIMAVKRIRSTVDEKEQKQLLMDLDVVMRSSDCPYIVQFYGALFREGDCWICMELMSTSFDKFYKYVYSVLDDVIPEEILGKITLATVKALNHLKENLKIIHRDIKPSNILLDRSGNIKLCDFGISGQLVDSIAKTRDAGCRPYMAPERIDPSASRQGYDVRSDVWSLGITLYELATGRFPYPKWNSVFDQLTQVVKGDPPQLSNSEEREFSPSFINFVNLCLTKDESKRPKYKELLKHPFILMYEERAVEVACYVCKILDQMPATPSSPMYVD
The experiment in a line: Inhibition of MKK4 (unknown origin) assessed as incorporation of 33P-ATP.

Series [5] can be described thus: Toxicity in APP/PS1 mouse assessed as weight change at 10 mg/kg, po treated 3 times/week for 1 month. It is filed as organism-based. The settings on record: in vivo, 730 h, time 1 months.
Series [6] in a line: Toxicity in APP/PS1 mouse assessed as abnormal symptoms at 30 mg/kg, po treated 3 times/week for 1 month. It is filed as organism-based. The settings on record: in vivo, 730 h, time 1 months.
Series [7] has as its system Cortical neurone. The experiment in a line: Neuroprotective activity against Amyloid beta (1 to 42)-induced toxicity in rat cortical neuron assessed as cell viability at 20 uM measured after 48 hrs by MTT assay. The series is classed as functional. Conditions: read-out: Activity. A general note: Tetrazolium assays rely on reduction of a dye to a coloured formazan, in cell work by metabolically active cells.

For series [8], the system named is Mus musculus. The experiment in a line: Anti-alzheimer activity against APP/PS1 dE9 double transgenic mouse model assessed as time spent in platform quadrant at 10 mg/kg, po administered 3 times/week for 1 month and measured after 40 to 45 days of treatment by Morris water maze test (reference value: 11.06 +/- 1.53 %). The series is classed as functional. Conditions: time 27 day.

The target in series [9] is Mitogen-activated protein kinase 10 (Homo sapiens, UniProt P53779). The experiment in a line: Inhibition of human JNK3 incubated for 40 mins in presence of ATP and [gamma33P-ATP] by scintillation counting method. The settings on record: read-out: IC50.
Series [10] in a line: Toxicity in APP/PS1 mouse assessed as dead animal at 10 mg/kg, po treated 3 times/week for 1 month. It is filed as organism-based. Conditions: in vivo, 730 h, time 1 months.
In series [11] the target is Mitogen-activated protein kinase 11 (Homo sapiens, UniProt Q15759). The experiment in a line: Inhibition of human SAPK2b assessed as incorporation of 33P-ATP.
The nature of series [12]: Efflux ratio of apparent permeability basolateral to apical side over apical to basolateral side in human Caco-2 cells at 10 uM incubated for 1 hr by LC-MS/MS analysis. It is filed as ADME, cell-based. Background: Caco-2 monolayers are a common model of the intestinal barrier.
Series [13] in a line: Apparent permeability across basolateral to apical side in human Caco-2 cells at 10 uM incubated for 1 hr by LC-MS/MS analysis. The series is classed as ADME, cell-based.
For series [14], the system named is Mus musculus. The experiment in a line: Anti-alzheimer activity against homozygous 3 x Tg mouse model assessed as time spent in platform quadrant at 30 mg/kg, po administered daily for 2 months and measured after 27 days of treatment by Morris water maze test (reference value: 15.68 +/- 1.65 sec). It is filed as functional. The settings on record: 1460 h.
Series [15] concerns Mus musculus. The experiment in a line: Anti-alzheimer activity against APP/PS1 dE9 double transgenic mouse model assessed as escape latency time at 10 mg/kg, po administered 3 times/week for 1 month and measured after 27 days of treatment by Passive avoidance test (reference value: 18.5 +/- 2.3 sec). It is filed as functional. The settings on record: time 27 day.
Series [16] deals with Glycogen synthase kinase-3 beta (Homo sapiens, UniProt P49841). The experiment in a line: Inhibition of human GSK3beta assessed as incorporation of 33P-ATP.
Series [17] in a line: Oral bioavailability in Sprague-Dawley rat at 3 mg/kg measured upto 24 hrs by UPLC analysis. It is filed as ADME, organism-based. Conditions: in vivo.
Series [18] in a line: Toxicity in APP/PS1 mouse assessed as dead animal at 30 mg/kg, po treated 3 times/week for 1 month. Conditions: in vivo, 730 h, time 1 months. The series is classed as organism-based.
Series [19] concerns Cortical neurone. The experiment in a line: Neuroprotective activity against Amyloid beta (1 to 42)-induced toxicity in rat cortical neuron assessed as cell viability measured after 24 to 48 hrs by MTT assay. The series is classed as functional, cell-based. The settings on record: time 24-48 hrs.
The nature of series [20]: Tmax in Sprague-Dawley rat at 3 mg/kg, po measured upto 24 hrs by UPLC analysis. The settings on record: in vivo. It is filed as ADME, organism-based.
The nature of series [21]: Drug uptake in Sprague-Dawley rat brain at 30 mg/kg, po measured at Tmax. It is filed as ADME, organism-based. Conditions: in vivo.
Series [22] in a line: Toxicity in APP/PS1 mouse assessed as weight change at 30 mg/kg, po treated 3 times/week for 1 month. The series is classed as organism-based. Conditions: in vivo, 730 h, time 1 months.
Series [23] is described as follows: Half life in Sprague-Dawley rat at 1 mg/kg, iv measured upto 24 hrs by UPLC analysis. It is filed as ADME, organism-based. Conditions: in vivo.
The nature of series [24]: Inhibition of human SAPK2a T106 mutant assessed as incorporation of 33P-ATP.

Chain of Mitogen-activated protein kinase 8 (P45983 whole entry): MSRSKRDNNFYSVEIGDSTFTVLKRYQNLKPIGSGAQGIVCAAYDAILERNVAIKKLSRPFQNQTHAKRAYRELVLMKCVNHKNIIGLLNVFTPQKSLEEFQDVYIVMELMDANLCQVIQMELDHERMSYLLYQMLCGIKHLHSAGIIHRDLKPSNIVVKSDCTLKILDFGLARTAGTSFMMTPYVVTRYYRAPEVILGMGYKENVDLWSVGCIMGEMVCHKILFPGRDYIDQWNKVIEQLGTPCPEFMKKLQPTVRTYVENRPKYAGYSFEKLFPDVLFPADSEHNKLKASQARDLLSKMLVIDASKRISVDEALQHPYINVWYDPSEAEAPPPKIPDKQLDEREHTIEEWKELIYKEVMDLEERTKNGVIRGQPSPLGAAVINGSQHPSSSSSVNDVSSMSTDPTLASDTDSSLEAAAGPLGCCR
Chain of Mitogen-activated protein kinase 11 (Q15759 whole entry): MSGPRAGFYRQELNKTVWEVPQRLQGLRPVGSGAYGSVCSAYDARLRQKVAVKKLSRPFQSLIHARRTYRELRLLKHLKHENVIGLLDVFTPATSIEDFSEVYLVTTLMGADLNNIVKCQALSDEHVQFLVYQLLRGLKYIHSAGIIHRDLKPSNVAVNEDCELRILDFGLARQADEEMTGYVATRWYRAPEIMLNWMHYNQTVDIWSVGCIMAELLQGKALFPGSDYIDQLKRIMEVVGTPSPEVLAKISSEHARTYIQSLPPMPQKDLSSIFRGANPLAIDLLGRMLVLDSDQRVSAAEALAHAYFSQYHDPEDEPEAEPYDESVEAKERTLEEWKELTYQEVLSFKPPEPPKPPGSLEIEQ
Chain of Glycogen synthase kinase-3 beta (P49841 whole entry): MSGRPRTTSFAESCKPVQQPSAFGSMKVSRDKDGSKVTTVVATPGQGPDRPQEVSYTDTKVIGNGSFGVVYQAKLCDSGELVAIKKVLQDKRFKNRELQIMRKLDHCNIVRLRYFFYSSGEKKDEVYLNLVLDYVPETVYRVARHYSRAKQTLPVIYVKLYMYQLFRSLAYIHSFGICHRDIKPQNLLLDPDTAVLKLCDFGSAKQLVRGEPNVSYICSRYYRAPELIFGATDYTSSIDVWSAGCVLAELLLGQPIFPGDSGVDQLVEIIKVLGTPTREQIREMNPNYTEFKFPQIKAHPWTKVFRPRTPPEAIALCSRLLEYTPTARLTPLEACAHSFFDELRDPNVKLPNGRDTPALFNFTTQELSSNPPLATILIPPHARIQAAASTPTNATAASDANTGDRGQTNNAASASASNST
Chain of Mitogen-activated protein kinase 10 (P53779 whole entry): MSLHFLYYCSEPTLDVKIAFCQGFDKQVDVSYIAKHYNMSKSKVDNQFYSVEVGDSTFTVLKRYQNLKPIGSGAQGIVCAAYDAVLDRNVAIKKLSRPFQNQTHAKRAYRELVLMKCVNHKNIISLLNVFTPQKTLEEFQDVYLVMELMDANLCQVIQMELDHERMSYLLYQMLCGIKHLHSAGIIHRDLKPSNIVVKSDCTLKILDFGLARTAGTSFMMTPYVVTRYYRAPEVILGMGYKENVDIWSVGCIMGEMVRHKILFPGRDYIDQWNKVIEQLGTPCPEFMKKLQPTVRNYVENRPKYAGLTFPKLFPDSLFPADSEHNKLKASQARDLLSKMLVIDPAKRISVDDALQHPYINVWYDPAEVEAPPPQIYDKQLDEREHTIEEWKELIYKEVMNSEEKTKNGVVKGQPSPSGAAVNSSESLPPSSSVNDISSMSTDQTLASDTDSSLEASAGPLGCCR
Chain of Mitogen-activated protein kinase 10 (Rattus norvegicus) (P49187 whole entry): as the sequence (P53779 whole entry) above, with Q27H, Y32S, I33V, A34V counted along it

As usually defined, the IC50 is the concentration that gives 50% inhibition. As a reminder, the efflux ratio is the permeability from basolateral to apical divided by that in the opposite direction, in the common usage. As a reminder, the Papp B→A is how fast a substance crosses the layer from the basolateral side. In general, bioavailability refers to the share of a dose that reaches the circulation, judged against a reference dose that is usually intravenous. A high value points to much systemic uptake. As a reminder, the Tmax is the time at which the peak concentration occurs. In general, half-life refers to how long it takes for the measured level to halve. Turning to `N#CCc1cnc(-c2ccc3ccccc3c2)n1-c1ccnc(N[C@H]2CCCN(C(=O)C3CC3)C2)n1`, the IC50 in series [1] came out at 860 nM; in series [4], 970 nM; in series [9] it was 1 nM; in series [11], 280 nM; in series [16], 11700 nM; in series [24], 1190 nM. For the same molecule, the Activity in series [2] is 50.97%; in [3], “Dose-Dependent Effect”; in [5] it was “Non-Toxic”; in series [6], “Non-Toxic”; in series [10] it was “Non-Toxic”; in [18] it was “Non-Toxic”. Moreover, the figures for the Activity entry in [19] and in series [22] were “Dose-Dependent Effect” and “Non-Toxic”, respectively. Also, the viability at 20 µM in series [7] worked out at 46.8%. In addition, the figures for the Time in series [8], in series [14] and in series [15] were 10.53 s, 13.24 s and 31.7 s, respectively. In addition, the efflux ratio at 1 h, 10 µM in series [12] was 1.92. Further, the Papp B→A at 1 h, 10 µM in [13] is 26.4 ×10⁻⁶ cm/s. Moreover, the bioavailability in series [17] came out at 15.7%. In addition, the Tmax in series [20] turned out to be 37.8 min. Besides, the Drug uptake in series [21] turned out to be 26 ng/g. Also, the half-life in series [23] is 13.2 min.
